Measured values published in patent publication US20220030850A1, “CRYOPRESERVATIVE COMPOSITIONS AND METHODS” (REGENTS OF THE UNIVERSITY OF MINNESOTA, priority 2015, published 2022).

Columns and labels:
[1] = test system: Jurkat cells; assay: 96-well plate freezing, post-thaw scaled raw recovery (calcein-AM/PI); assay type: cell-based
Experimental: The first phase of this study involved using the DE algorithm to develop a three-component cryopreservation solution used at a single cooling rate (1° C./min). Three components (trehalose, glycerol, and ectoine (TGE)) were selected as components of the exemplary freezing medium used for preservation of Jurkat cells, a hematopoietic model cell type, based on pre-screening of multiple non-DMSO components. For this single cooling rate study, the DE algorithm was programmed to output 18 vector solutions per generation with a weight=0.85 and a crossover=1. Jurkat cells cryopreserved in 10% DMSO at a cooling rate of 1° C./min were used as a control.
Cooling rate influences cell survival, and the preferred cooling rate for a given application can depend, at least in part, on the composition of the freezing medium and the cell type being frozen. […] To assess both cooling rate and the composition of the solution, the DE algorithm was programmed to output 27 vector solutions per generation with weight=0.85 and a crossover=1. Solutions were separated into categories based on their DE algorithm defined cooling rate, and were frozen in batches at a cooling rate of […], 0.5° C./min, 1° C./min, 3° C./min, 5° C./min, or 10° C./min. Results were normalized and scaled raw recovery is reported, allowing results from all cooling rates and all generations to be compared directly. […]
After 96 well plates were thawed, calcein-acetoxymethyl (AM)/propidium iodide was added to each well and the wells were covered from light and placed in a 37° C. incubator for 30 minutes to allow the live cells to cleave calcein-AM. The plates were then analyzed for fluorescence on a plate reader. Raw fluorescence values were used to calculate the number of live and dead cells present in each well by correlating to a control curve of unfrozen cells. The live cell recovery was calculated by dividing the number of live cells present in thawed samples (calcein-AM plate reader fluorescence) by the number of live cells seeded pre-freeze (AO/PI counts). […]

[2] = test system: MSCs (CD73, CD90, CD105, CD45); assay: Surface marker characterization by flow cytometry; assay type: cell-based, human; details: frozen MSCs
Description: Cells were suspended to a concentration of 1×10^6 cells/ml in media and stained with a panel of the following antibodies: mouse IgG1 anti-human CD73 (APC-conjugated, BD Biosciences, San Jose, Calif., clone AD2), mouse IgG1 anti-human CD90 (FITC-conjugate, clone 5E10, Molecular Probes, Eugene, Oreg.), mouse IgG1 anti-human CD105 (PE-conjugated, R&D Systems, Inc., Minneapolis, Minn. clone 166707) and mouse IgG1 anti-human CD45 (BV421-conjugated, clone HI30, BD Biosciences, San Jose, Calif.). Cells were incubated with antibodies for 30 minutes at 4° C. Flow cytometry was performed on a flow cytometer (LSR II, BD Biosciences, San Jose, Calif.) at low flow rate with the fine adjust knob five turns from max. At least 15,000 events were recorded for each sample. Cell populations were gated for forward and side scatter compared to unstained MSCs and CD45 expressing Jurkat cells as, respectively, negative and positive controls to establish boundaries for fluorescent signals.

[3] = test system: Jurkat cells; assay: Raman microscopy cell penetration study of cryoprotectants; assay type: cell-based; details: Raman microscopy, at room temperature and at freezing temperatures
Experimental: Raman microscopy data provides an indication of the location of action of each cryopreservative. The images in FIG. 12 show Jurkat cells frozen in either glycerol (penetrating) or trehalose (non-penetrating).
These experiments were performed for most of the components described in the sections above both at room temperature and at freezing temperatures to assess whether penetration was temperature dependent.
Confocal Raman Microspectroscopy (CRM) measurements are conducted using Witec Confocal Raman Microscope System Alpha 300R (WITec, Wissenschaftliche Instrumente und Technologie GmbH, Ulm, Germany) with UHTS300 spectrometer and DV401 CCD detector. A wavelength of 532 nm Nd:YAG laser and 10 mW of power is used as excitation source. The laser is transferred to the microscopy in a singer fiber. A 100× air objective (NA 0.90; Nikon Instruments, Melville, N.Y.) is used for focusing the 532 nm excitation laser to the sample. Data collection and analysis are performed by Windows-based WitecControl_1.38 software.

**Q.** Which “recovery of Jurkat cells” value ([1]; 10% DMSO at 1° C./min, control, 96-well) does the source give for `C[S+](C)[O-]` [DMSO, dimethyl sulfoxide] here?
**A.** 16%

**Q.** What about the “expression of negative surface marker CD45” value [2] of the same compound?
**A.** < 1%

**Q.** And the “expression of positive surface markers CD73, CD90, CD105” value [2]?
**A.** > 99%

**Q.** How did the “recovery of Jurkat cells, sugar synergy study” value ([1]; 150, 300, 600 mM total sugar, FIG. 8) turn out when `OC[C@H]1O[C@@](CO)(O[C@H]2O[C@H](CO)[C@@H](O)[C@H](O)[C@H]2O)[C@@H](O)[C@@H]1O` [Sucrose] was run?
**A.** outperformed monosaccharides

**Q.** What about the Penetration [3] of the same compound?
**A.** Yes
